Measurements: patent EP0090368A1, “Anthelmintic preparations” (priority 1982, dated 1983)

Assays:
[1] = Safety on oral administration to cattle (Example 12); settings: bovine, in vivo, selenium, cobalt and fenbendazole in combination (preparation of Example 3), read-out: oral administration with no adverse effect observed
Description: The safety of the composition of Example 3 on oral administration to cattle was investigated: • A total of 16 cattle were treated-orally with the preparation of Example 3. Eight Friesian heifers weighing between 330 and 420 kg were treated with the preparation at the recommended dose of 7.5 ml per 100 kg body weight. Four Friesian cattle weighing between 930 and 990 kg were treated orally with the preparation at five times the recommended dose i.e. 37.5 ml per 100 kg. A further four Friesan cattle weighing between 870 and 1030 kg were treated orally with the preparation at ten times the recommended dose i.e. […].
The cattle were observed daily for a period of 21 days following treatment for any signs at adverse effect.

[2] = Toxicity in lambs, daily clinical examinations after oral treatment (Example 2); settings: sheep, in vivo, per os, given together with fenbendazole as developmental formulation, read-out: oral dose levels tolerated, no signs of drug toxicity
Description: Animals: Twenty, six to eight month old lambs were made available for the purpose of this investigation. The lambs were allocated to five groups (n = 4) on the basis of mean faecal egg counts determined on each of three successive days.
Prior to treatment, all lambs were weighed. Lambs were maintained at grass as a single group for the duration of the study.
• Group 1: Untreated controls • Group 2: Treated with 5 mg/kg fenbendazole as Panacur 2.5 % Suspension (Commercial batch, "Panacur", is a Trade Mark) Composition of Panacur 2.5 % : as described in Example 1 with the omission of the selenium and cobalt components. • Group 3: Treated with 5 mg/kg fenbendazole as a developmental formulation (see below) • Group 4: Treated with 25 mg/kg fenbendazole as a developmental formulation (see below) • Group 5: Treated with 50 mg/kg fenbendazole as a developmental formulation (see below)
Groups 4 and 5 thus received five and ten times respectively the recommended dose of fenbendazole and cobalt, and 12.5 and 25 times respectively the recommended dose of selenium.
Clinical examinations were carried out on all lambs daily post treatment for the duration of the study.

[3] = per os, sheep; cited from earlier work

| SMILES | NOAEL at 504 h [1] [mg/kg] | NOAEL [2] [mg/kg] | LD50 [3] [mg/kg] |
| --- | --- | --- | --- |
| COC(=O)Nc1nc2ccc(Sc3ccccc3)cc2[nH]1 [Fenbendazole, 5-Phenyl-thio-2-benzimidazolecarbamic acid methylester, reference compound] | ≤ 75 | – | – |
| [Se] [elemental selenium] | ≥ 20 | ≥ 2 | 0.5 |
